The record followed here is ChEMBL document CHEMBL1165927, “Insulinomimetic activity of two new gallotannins from the fruits of Capparis moonii” (2010).

The test system of test [1] is L6. The test can be described thus: Inhibition of glucose uptake in rat L6 myocyte at 50 uM after 24 hrs. The class given is functional. To be noted: L6, 24 h, values are per cent of control.
Test [2] relates to L6. The test can be described thus: Inhibition of glucose uptake in rat L6 myocyte at 10 ng/ml after 24 hrs. The class given is functional, cell-based.
For test [3], the target named is Insulin receptor (Rattus norvegicus) (UniProt P15127). In words: […] in rat L6 cells after 24 hrs by immunoprecipitation. The class given is cell-based.
Chain of Insulin receptor (Rattus norvegicus) (P15127 27-759 limits assumed): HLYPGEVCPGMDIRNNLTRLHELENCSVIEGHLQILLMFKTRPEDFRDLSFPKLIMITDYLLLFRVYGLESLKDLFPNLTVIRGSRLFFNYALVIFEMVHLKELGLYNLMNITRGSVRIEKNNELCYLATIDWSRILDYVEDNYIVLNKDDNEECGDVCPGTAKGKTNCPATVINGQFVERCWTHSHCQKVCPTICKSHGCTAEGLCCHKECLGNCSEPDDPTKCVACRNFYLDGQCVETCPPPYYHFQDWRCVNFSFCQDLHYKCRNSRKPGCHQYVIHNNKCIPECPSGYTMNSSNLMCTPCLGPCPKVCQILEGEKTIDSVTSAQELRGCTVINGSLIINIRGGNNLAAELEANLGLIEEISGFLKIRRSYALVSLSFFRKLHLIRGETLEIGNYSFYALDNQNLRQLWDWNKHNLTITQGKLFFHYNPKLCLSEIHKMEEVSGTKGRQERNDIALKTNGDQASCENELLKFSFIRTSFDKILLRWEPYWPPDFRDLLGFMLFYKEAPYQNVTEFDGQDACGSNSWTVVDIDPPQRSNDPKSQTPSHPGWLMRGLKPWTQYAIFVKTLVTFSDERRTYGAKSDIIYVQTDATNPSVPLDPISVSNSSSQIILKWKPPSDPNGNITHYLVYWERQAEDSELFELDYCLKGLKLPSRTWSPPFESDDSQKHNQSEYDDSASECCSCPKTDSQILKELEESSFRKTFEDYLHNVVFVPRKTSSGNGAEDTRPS
Chain of Insulin receptor (Rattus norvegicus) (P15127 764-1383 limits assumed): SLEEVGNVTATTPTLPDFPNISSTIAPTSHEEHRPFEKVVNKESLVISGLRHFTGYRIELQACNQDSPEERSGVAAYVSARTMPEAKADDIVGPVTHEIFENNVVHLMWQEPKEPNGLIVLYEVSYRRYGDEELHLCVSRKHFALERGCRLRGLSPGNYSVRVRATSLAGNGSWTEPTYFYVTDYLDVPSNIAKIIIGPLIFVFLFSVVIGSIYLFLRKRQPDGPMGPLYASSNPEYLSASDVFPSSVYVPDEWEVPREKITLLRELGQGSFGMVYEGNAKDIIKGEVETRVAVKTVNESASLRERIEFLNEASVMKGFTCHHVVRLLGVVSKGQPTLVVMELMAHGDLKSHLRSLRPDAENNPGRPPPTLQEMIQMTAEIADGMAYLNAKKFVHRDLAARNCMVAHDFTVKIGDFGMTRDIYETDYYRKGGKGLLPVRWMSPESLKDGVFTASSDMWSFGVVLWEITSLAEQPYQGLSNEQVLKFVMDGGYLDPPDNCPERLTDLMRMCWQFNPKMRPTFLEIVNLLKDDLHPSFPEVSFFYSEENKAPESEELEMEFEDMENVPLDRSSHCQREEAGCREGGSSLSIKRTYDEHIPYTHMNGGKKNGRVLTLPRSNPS
Test [4] deals with T1, Insulin receptor substrate 1 (Rattus norvegicus) (UniProt P35570).
T1 sequence (whole entry): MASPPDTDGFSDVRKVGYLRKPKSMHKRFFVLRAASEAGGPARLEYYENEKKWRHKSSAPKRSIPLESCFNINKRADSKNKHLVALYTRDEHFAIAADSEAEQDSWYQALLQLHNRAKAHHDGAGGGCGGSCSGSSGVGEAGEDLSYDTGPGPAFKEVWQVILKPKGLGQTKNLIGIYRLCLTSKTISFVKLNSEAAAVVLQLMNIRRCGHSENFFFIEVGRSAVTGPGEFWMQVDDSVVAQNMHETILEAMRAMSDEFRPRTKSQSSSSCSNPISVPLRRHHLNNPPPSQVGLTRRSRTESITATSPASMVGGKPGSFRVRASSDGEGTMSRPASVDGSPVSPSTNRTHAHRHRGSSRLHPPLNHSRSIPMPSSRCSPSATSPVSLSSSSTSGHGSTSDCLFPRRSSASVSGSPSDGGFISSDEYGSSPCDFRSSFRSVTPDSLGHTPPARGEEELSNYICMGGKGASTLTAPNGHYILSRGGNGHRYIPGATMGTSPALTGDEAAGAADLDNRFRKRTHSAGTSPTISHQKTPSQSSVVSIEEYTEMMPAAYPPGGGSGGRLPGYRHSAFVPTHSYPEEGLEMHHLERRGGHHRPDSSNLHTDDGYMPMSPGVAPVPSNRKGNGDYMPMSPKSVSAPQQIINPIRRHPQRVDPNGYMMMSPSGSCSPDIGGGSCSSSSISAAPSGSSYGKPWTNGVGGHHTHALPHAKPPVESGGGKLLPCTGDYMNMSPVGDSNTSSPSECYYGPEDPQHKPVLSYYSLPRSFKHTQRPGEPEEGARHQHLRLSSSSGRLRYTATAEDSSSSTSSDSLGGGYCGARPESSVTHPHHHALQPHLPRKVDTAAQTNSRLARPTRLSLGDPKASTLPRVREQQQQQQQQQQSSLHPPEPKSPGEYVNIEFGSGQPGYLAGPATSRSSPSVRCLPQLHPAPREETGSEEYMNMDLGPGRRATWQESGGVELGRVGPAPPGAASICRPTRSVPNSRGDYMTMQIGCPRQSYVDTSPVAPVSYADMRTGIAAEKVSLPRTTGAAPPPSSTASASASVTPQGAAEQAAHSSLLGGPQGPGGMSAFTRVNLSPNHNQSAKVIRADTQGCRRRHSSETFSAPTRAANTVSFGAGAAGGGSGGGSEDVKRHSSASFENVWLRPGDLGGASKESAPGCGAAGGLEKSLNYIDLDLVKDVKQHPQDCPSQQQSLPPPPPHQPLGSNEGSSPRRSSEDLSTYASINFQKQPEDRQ
In words: […] in rat L6 cells after 24 hrs by immunoprecipitation. The class given is cell-based.

Test [5] deals with L6. In words: Increase in PI3K mRNA expression in rat L6 cells at 10 ng/ml by RT-PCR. The class given is functional, cell-based.
Test [6] deals with L6. The test can be described thus: Increase in GLUT4 mRNA expression in rat L6 cells at 50 uM by RT-PCR. The class given is functional, cell-based.
In test [7] the test system is L6. In words: Increase in PI3K mRNA expression in rat L6 cells at 100 ng/ml by RT-PCR. The class given is functional, cell-based.

Each structure is given as a SMILES string. Activity calls are given as the source filed them. No cut-off for these calls is given here.

The term residual activity denotes the signal under treatment as a percentage of the control signal. For the molecule `CN(CCOc1ccc(CC2SC(=O)NC2=O)cc1)c1ccccn1` (stereo unspecified) [ROSIGLITAZONE], in test [1], the residual activity at 50 µM was 240%.

For the molecule `O=C(O)CC(C(=O)O)C1c2c(C(=O)O[C@H]3[C@H](OC(=O)c4cc(O)c(O)c(O)c4)O[C@H](COC(=O)c4cc(O)c(O)c(O)c4)[C@@H](O)[C@H]3OC(=O)c3cc(O)c(O)c(O)c3)cc(O)c(O)c2OC(=O)C1O` (stereo partly specified), the inhibition entry in test [2] is “Dose-dependent effect”. The inhibition entry in test [3] and in test [4] was “Active” throughout. Also, the result in test [5] and in test [6] was Active.

As to `COC(=O)CC(C(=O)O)C1c2c(C(=O)O[C@H]3[C@H](OC(=O)c4cc(O)c(O)c(O)c4)O[C@H](COC(=O)c4cc(O)c(O)c(O)c4)[C@@H](O)[C@H]3OC(=O)c3cc(O)c(O)c(O)c3)cc(O)c(O)c2OC(=O)C1O` (stereo partly specified), the inhibition result in test [2] is “Dose-dependent effect”. Also, the outcome in test [7] and in test [6] was Active. For the same molecule, the inhibition result in test [3] and in test [4] was “Active” each time.
